ChEMBL document CHEMBL6182851, “Discovery of dual CDK4/6 and BRD4 inhibitor as apoptosis and autophagy inducers against NSCLC in vitro and in vivo” (Eur J Med Chem, 2025)
Active and inactive are the calls of the source. The calls are words filed in the database; no cut-off is given here.

Columns and labels:
NCI-H460 [1] = test: Induction of autophagy in human NCI-H460 cells assessed as colocalization of LC3B site with LAMP1 protein incubated for 24 hrs by immunofluorescence analysis; format: functional, cell-based; conditions: dose 2-8 µM
NCI-H460 [2] = test: Induction of autophagy in human NCI-H460 cells assessed as increase in autophagosomes incubated for 48 hrs by MDC staining and LC3B immunofluorescence analysis; format: functional, cell-based; conditions: dose 2-8 µM
[3] = MRT (0 to infinity) in male Sprague-Dawley rat at 5 mg/kg, iv measured up to 24 hrs by LC-MS/MS analysis; format: ADME, organism-based; conditions: in vivo
NCI-H460 [4] = test: Induction of autophagy in human NCI-H460 cells assessed as upregulation of beclin 1 level; format: functional, cell-based
NCI-H460 [5] = test: Induction of apoptosis in human NCI-H460 cells assessed as early apoptotic cells at 2 uM incubated for 48 hrs by Annexin V-PE/7-AAD staining based flow cytometric analysis (reference value: 3.58 %); format: functional
[6] = Toxicity in mouse assessed as histological change in lung at 400 mg/kg, ip measured for 21 days by H and E staining based analysis; format: organism-based; conditions: in vivo, 504 h, time 21 day
MCF-10A = test: Cytotoxicity against human MCF-10A cells assessed as cell viability at 5 to 10 uM incubated for 48 hrs by MTT assay; format: toxicity, cell-based; conditions: dose 5-10 µM
NCI-H460 [7] = test: Antitumor activity against human NCI-H460 cells xenografted in female BALB/c nude mouse assessed as reduction in P-RB expression at 50 mg/kg, ip administered for 21 consecutive days by immunohistochemical analysis; format: functional, organism-based; conditions: time 21.0 day
[8] = C0 in male Sprague-Dawley rat at 5 mg/kg, iv measured up to 24 hrs by LC-MS/MS analysis; format: ADME, organism-based; conditions: in vivo
NCI-H460 [9] = test: Induction of apoptosis in human NCI-H460 cells assessed as early apoptotic cells at 8 uM incubated for 48 hrs by Annexin V-PE/7-AAD staining based flow cytometric analysis (reference value: 3.58 %); format: functional
NCI-H460 [10] = test: Induction of cell cycle arrest in human NCI-H460 cells assessed as accumulation of cells at G1 phase at 4 uM incubated for 48 hrs by PI staining based flow cytometric analysis (reference value: 56.7 %); format: functional
NCI-H460 [11] = test: Antitumor activity against human NCI-H460 cells xenografted in female BALB/c nude mouse assessed as reduction in c-Myc expression at 50 mg/kg, ip administered for 21 consecutive days by immunohistochemical analysis; format: functional, organism-based; conditions: time 21.0 day
NCI-H460 [12] = test: Induction of cell cycle arrest in human NCI-H460 cells assessed as accumulation of cells at G2 phase at 2 uM incubated for 48 hrs by PI staining based flow cytometric analysis (reference value: 11.0 %); format: functional
NCI-H460 [13] = test: Induction of cell cycle arrest in human NCI-H460 cells assessed as accumulation of cells at G1 phase at 8 uM incubated for 48 hrs by PI staining based flow cytometric analysis (reference value: 56.7 %); format: functional
NCI-H460 [14] = test: Induction of autophagy in human NCI-H460 cells assessed as increase in vacuole formation incubated for 12 hrs by microscopic analysis; format: functional, cell-based
NCI-H460 [15] = test: Induction of autophagy in human NCI-H460 cells assessed as increase in acidic vesicles incubated for 48 hrs by MDC staining and LC3B immunofluorescence analysis; format: functional, cell-based; conditions: dose 2-8 µM
NCI-H460 [16] = test: Induction of apoptosis in human NCI-H460 cells assessed as late apoptotic cells at 2 uM incubated for 48 hrs by Annexin V-PE/7-AAD staining based flow cytometric analysis (reference value: 3.76 %); format: functional
NCI-H460 [17] = test: Induction of autophagy in human NCI-H460 cells assessed as production of autophagic lysosomes at 4 uM incubated for 24 hrs by transmission electron microscopic analysis; format: functional, cell-based
NCI-H460 [18] = test: Induction of autophagy in human NCI-H460 cells assessed as increase in yellow fluorescence incubated for 24 hrs by immunofluorescence analysis; format: functional, cell-based; conditions: dose 2-8 µM
[19] = Toxicity in mouse assessed as histological change in liver at 400 mg/kg, ip measured for 21 days by H and E staining based analysis; format: organism-based; conditions: in vivo, 504 h, time 21 day
[20] = AUC (0 to infinity) in male Sprague-Dawley rat at 5 mg/kg, iv measured up to 24 hrs by LC-MS/MS analysis; format: ADME, organism-based; conditions: in vivo
NCI-H460 [21] = test: Induction of autophagy in human NCI-H460 cells assessed as increase in LC3-II expression incubated for 48 hrs by Western blotting analysis; format: functional, cell-based; conditions: dose 2-8 µM
NCI-H460 [22] = test: Induction of apoptosis in human NCI-H460 cells assessed as necrotic cells at 8 uM incubated for 48 hrs by Annexin V-PE/7-AAD staining based flow cytometric analysis (reference value: 0.79 %); format: functional
NCI-H460 [23] = test: Antiproliferative activity against human NCI-H460 cells assessed as reduction in EdU positive cells incubated for 24 hrs by EdU incorporation assay; format: functional, cell-based; conditions: dose 2-8 µM
[24] = Toxicity in mouse assessed as histological change in heart at 400 mg/kg, ip measured for 21 days by H and E staining based analysis; format: organism-based; conditions: in vivo, 504 h, time 21 day
NCI-H460 [25] = test: Cytotoxicity against human NCI-H460 cells measured up to 8 days; format: functional, cell-based; conditions: dose 2-8 µM, time <= 8.0 day
L02 [26] = test: Cytotoxicity against human LO2 cells measured up to 8 days; format: toxicity, cell-based; conditions: l02, 192 h, time < 8 day
[27] = molecular target: Cyclin-dependent kinase 4 (Homo sapiens, UniProt P11802); test: Inhibition of CDK4 (unknown origin)
Sequence of Cyclin-dependent kinase 4 (P11802 whole entry): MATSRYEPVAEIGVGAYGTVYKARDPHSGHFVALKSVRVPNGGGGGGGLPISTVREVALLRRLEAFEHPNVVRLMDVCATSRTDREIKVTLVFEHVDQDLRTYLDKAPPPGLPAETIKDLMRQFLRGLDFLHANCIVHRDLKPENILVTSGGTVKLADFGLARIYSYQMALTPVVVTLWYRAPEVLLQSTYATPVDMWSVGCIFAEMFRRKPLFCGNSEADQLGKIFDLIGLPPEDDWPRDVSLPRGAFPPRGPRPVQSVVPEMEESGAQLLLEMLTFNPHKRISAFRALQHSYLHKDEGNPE

[28] = Toxicity in mouse assessed as animal mortality at 100 to 400 mg/kg, ip measured for 21 days; format: organism-based; conditions: in vivo, 504 h, dose 100-400 mg/kg, time 21 day
NCI-H460 [29] = test: Induction of cell cycle arrest in human NCI-H460 cells assessed as accumulation of cells at G2 phase at 8 uM incubated for 48 hrs by PI staining based flow cytometric analysis (reference value: 11.0 %); format: functional
NCI-H460 [30] = test: Induction of apoptosis in human NCI-H460 cells assessed as late apoptotic cells at 8 uM incubated for 48 hrs by Annexin V-PE/7-AAD staining based flow cytometric analysis (reference value: 3.76 %); format: functional
NCI-H460 [31] = test: Induction of autophagy in human NCI-H460 cells assessed as suspension of dead cells incubated for 12 hrs by microscopic analysis; format: functional, cell-based
NCI-H460 [32] = test: Antiproliferative activity against human NCI-H460 cells assessed as decrease in p-Rb expression at 2 to 8 uM treated for 24 hrs by immunofluorescence analysis; format: functional, cell-based; conditions: dose 2-8 µM
L02 [33] = test: Cytotoxicity against human LO2 cells assessed as inhibition of cell viability at 5 to 10 uM incubated for 48 hrs by MTT assay; format: toxicity, cell-based; conditions: l02, 48 h, dose 5-10 µM
NCI-H460 [34] = test: Induction of cell cycle arrest in human NCI-H460 cells assessed as accumulation of cells at G1 phase at 2 uM incubated for 48 hrs by PI staining based flow cytometric analysis (reference value: 56.7 %); format: functional
NCI-H460 [35] = test: Antitumor activity against human NCI-H460 cells xenografted in female BALB/c nude mouse assessed as tumor growth inhibition at 50 mg/kg, ip administered for 21 consecutive days relative to control; format: functional; conditions: NCI-H460, 504 h, time 21 day, read-out: TGI
[36] = Clearance in male Sprague-Dawley rat at 5 mg/kg, iv measured up to 24 hrs by LC-MS/MS analysis; format: ADME, organism-based; conditions: in vivo
[37] = Toxicity in mouse assessed as body weight change at 100 to 400 mg/kg, ip measured for 21 days; format: organism-based; conditions: in vivo, 504 h, dose 100-400 mg/kg, time 21 day

COc1cc(-c2nc3ccc(F)cc3c(=O)[nH]2)cc(OC)c1OCC(=O)N1CCN(c2ccc(Nc3ncc4cc(C(=O)N(C)C)n(C5CCCC5)c4n3)nc2)CC1
Activity (NCI-H460 [1]): Dose-dependent-effect | Activity (NCI-H460 [2]): Dose-dependent-effect | MRT inf [3]: 3.04 h | Activity (NCI-H460 [4]): Active | Activity (NCI-H460 [5]): 9.06% | Activity [6]: Non-toxic | Activity (MCF-10A): Non-toxic | Activity (NCI-H460 [7]): Active | C0 at 24 h [8]: 6000 ng/mL | Activity (NCI-H460 [9]): 16.9% | Activity (NCI-H460 [10]): 71.1% | Activity (NCI-H460 [11]): Active | Activity (NCI-H460 [12]): 11.4% | Activity (NCI-H460 [13]): 80.8% | Activity (NCI-H460 [14]): Active | Activity (NCI-H460 [15]): Dose-dependent-effect | Activity (NCI-H460 [16]): 4.55% | Activity (NCI-H460 [17]): Active | Activity (NCI-H460 [18]): Dose-dependent-effect | Activity [19]: Non-toxic | AUC(0-inf) [20]: 3860 ng·h/mL | Activity (NCI-H460 [21]): Dose-dependent-effect | Activity (NCI-H460 [22]): 1.17% | Activity (NCI-H460 [23]): Dose-dependent-effect | Activity [24]: Non-toxic | Activity (NCI-H460 [25]): Time-dependent-effect | Activity (L02 [26]): Non-toxic | IC50 [27]: 85.1 nM | Activity [28]: Non-toxic | Activity (NCI-H460 [29]): 3.41% | Activity (NCI-H460 [30]): 3.07% | Activity (NCI-H460 [31]): Active; Minor Suspension Was Observed | Activity (NCI-H460 [32]): Active | Activity (L02 [33]): Non-toxic | Activity (NCI-H460 [34]): 60.6% | inhibition in vivo at 50 mg/kg (NCI-H460 [35]): 85.3% | clearance [36]: 22.3 mL/min/kg | Activity [37]: Non-toxic
